Where “and” joins values, the source holds several entries; their conditions need not be identical. Equal entries are not always repeated. Structures can show the parent of a compound that is named as a salt.
Tests used:
TASK-1 = conditions: cited from earlier work; for IC50: stated in the literature, read-out: IC50 value, blocker of TASK-1; for Effect on the TASK-1 channel (in words): therapeutic concentrations, literature
respiration = experiment: Respiratory minute volume in narcotized rats; format: in vivo, rat
Protocol: (§1) E) Investigation of the Effect on the Electromyographic Activity of the Genioglossus Muscle and the Respiratory Minute Volume in Rats
(§2) The compound of example 1 (R-enantiomer) and of example 2 was investigated for electromyographic activity of the genioglossus muscle and for respiration-stimulating effect on male urethane-chloralose-narcotized, vagotomized rats with a weight of from 250 to 300 g. For this purpose, the genioglossus EMG activity was measured by means of EMG electrodes. The respiration-stimulating effect was investigated by measuring the respiratory minute volume by means of a tracheal cannula. For the investigations, the rats were administered intravenously successively with 1, 3 and 10 mg/kg of the compound of example 1 (R-enantiomer) and of example 2, with glycofurol (50%) as the vehicle, at 15 minute intervals. CO2 was used as the positive control for the stimulation of the genioglossus activity and of the respiratory minute volume.

genioglossus muscle = experiment: Electromyographic activity of the genioglossus muscle in narcotized rats; format: in vivo, rat
Protocol: as §1, §2

TASK1 (human) [1] = molecular target: T1, TASK1 (human) (Homo sapiens, UniProt O14649); experiment: Activity on the TASK-1 channel with the FLIPR technique on CHO cells; format: cell-based; set-up: expressed in transfected cells; host or cells: CHO cells; conditions: inhibition of human TASK-1 current, 10 μmol/l
Text: B) Determination of the Activity on the TASK-1 Channel with the FLIPR Technique

TASK1 (mouse) = molecular target: T2, TASK1 (mouse) (Mus musculus, UniProt O35111); experiment: Activity on the TASK-1 channel in Xenopus oocytes (two-microelectrode voltage clamp), mouse channel; format: cell-based; conditions: mouse TASK-1 expressed in Xenopus oocytes, voltage jumps to 40 mV, pH 7.4, room temperature; read-out: IC50 (μmol) TASK1 (mouse)
T2 construct: expressed in transfected cells; host or cells: Xenopus laevis oocytes injected with in vitro synthesized RNA
Protocol: (§3) A) Determination of the Activity on the TASK-1 Channel in Xenopus Oocytes
(§4) Mouse or human TASK-1 channels were expressed in Xenopus oocytes. For this purpose, oocytes were first isolated from Xenopus levis and defolliculated. Subsequently, TASK-1-encoding RNA synthesized in vitro was injected into these oocytes. After two days of TASK-1 protein expression, TASK-1 currents were measured on the oocytes with the two-microelectrode voltage clamp technique. In this measurement, the TASK-1 channels were generally activated with voltage jumps lasting 250 ms to 40 mV. The bath was flushed with a solution of the following composition: NaCl 96 mM, KCl 2 mM, CaCl2 1.8 mM, MgCl2 1 mM, HEPES 5 mM (titrated to pH 7.4 with NaOH). These experiments were performed at room temperature. For data acquisition and analysis, the following were used: Geneclamp amplifier (Axon Instruments, Foster City, USA) and MacLab D/A converter and software (ADinstruments, Castle Hill, Australia). The inventive substances were tested by adding them to the bath solution in different concentrations. The effects of the substances were calculated as the percentage inhibition of the TASK-1 control current which was obtained when no substance was added to the solution. The data was subsequently fitted to the Hill equation in order to determine the half-maximum inhibitory concentrations (IC50 values) for the particular substances.

TASK1 (human) [2] = molecular target: T1, TASK1 (human); experiment: Activity on the TASK-1 channel in Xenopus oocytes (two-microelectrode voltage clamp), human channel; format: cell-based; set-up: expressed in transfected cells; host or cells: Xenopus laevis oocytes injected with in vitro synthesized RNA; conditions: human TASK-1 expressed in Xenopus oocytes, voltage jumps to 40 mV, pH 7.4, room temperature; read-out: IC50 (μmol) TASK1 (human)
Protocol: as §3, §4

T1 sequence (O14649 whole entry): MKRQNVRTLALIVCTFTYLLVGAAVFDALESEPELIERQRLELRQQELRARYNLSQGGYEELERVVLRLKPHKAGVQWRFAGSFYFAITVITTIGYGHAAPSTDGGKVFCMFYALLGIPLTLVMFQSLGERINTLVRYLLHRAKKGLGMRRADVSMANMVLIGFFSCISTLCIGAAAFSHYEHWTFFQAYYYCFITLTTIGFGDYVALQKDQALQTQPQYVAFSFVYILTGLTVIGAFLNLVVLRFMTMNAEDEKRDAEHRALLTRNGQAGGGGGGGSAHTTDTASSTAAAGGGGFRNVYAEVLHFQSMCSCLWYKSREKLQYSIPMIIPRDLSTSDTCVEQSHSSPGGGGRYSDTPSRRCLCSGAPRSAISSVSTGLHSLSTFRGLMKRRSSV
T2 sequence (O35111 whole entry): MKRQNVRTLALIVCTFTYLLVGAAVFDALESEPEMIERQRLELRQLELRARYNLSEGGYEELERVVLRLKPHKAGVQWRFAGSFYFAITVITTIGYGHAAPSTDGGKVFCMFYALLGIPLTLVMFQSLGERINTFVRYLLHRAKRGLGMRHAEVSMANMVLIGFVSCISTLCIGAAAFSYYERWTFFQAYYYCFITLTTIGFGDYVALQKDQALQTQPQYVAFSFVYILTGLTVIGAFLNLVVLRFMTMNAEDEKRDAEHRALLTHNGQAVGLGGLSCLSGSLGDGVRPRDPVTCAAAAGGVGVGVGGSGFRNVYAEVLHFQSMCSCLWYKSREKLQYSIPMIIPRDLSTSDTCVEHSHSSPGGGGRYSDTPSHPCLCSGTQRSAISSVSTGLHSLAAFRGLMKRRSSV

Structure (SMILES) | inhibition at 10 µM (TASK1 (human) [1]) [%] | IC50 (TASK1 (mouse)) [nM] | other results
CCCCC/C=C\C/C=C\C/C=C\C/C=C\CCCC(=O)NCCO [anandamide] |  |  | IC50 (TASK-1): 700 nM
FC(F)(F)C(Cl)Br (stereo not shown) [halothane] |  |  | Effect on the TASK-1 channel (in words) (TASK-1): activation
O=C=O [CO2, reference compound] |  |  | Respiratory minute volume (mean) (respiration; 5% CO2 positive control): 237 mL/min and 209 mL/min; EMG activity of the genioglossus muscle (mean) (genioglossus muscle; 5% CO2 positive control): 5.13 arbitrary units and 3.15 arbitrary units
COc1ccc(CC(=O)NCc2ccccc2-c2sccc2C(=O)NCc2ccc(F)cc2F)cc1 [Example 11, N-(2,4-Difluorobenzyl)-2-(2-{[2-(4-methoxyphenyl)acetyl-amino]methyl}phenyl)thiophene-3-carboxamide] | 88 | 350 | 
COc1ccc(CC(=O)NCc2ccccc2-c2ccccc2C(=O)NCCc2cccnc2)cc1 [Example 2, N-(2-pyridin-3-ylethyl)-2′-{[2-(4-methoxyphenyl)acetylamino]-methyl}biphenyl-2-carboxamide] | 77 | 430 | Respiratory minute volume (mean) (respiration; 1 mg/kg intravenously): 253 mL/min; Respiratory minute volume (mean) (respiration; 3 mg/kg intravenously): 279 mL/min; Respiratory minute volume (mean) (respiration; 10 mg/kg intravenously): 291 mL/min; Effect on the respiratory minute volume (in words) (respiration; summary of tables 3 and 5): stimulate; IC50 (TASK1 (human) [2]): 570 nM; EMG activity of the genioglossus muscle (mean) (genioglossus muscle; 1 mg/kg intravenously): 3.15 arbitrary units; EMG activity of the genioglossus muscle (mean) (genioglossus muscle; 3 mg/kg intravenously): 3.55 arbitrary units; EMG activity of the genioglossus muscle (mean) (genioglossus muscle; 10 mg/kg intravenously): 3.82 arbitrary units; Effect on the electromyographic activity of the genioglossus muscle (in words) (genioglossus muscle; summary of tables 2 and 4): stimulate
COc1ccc(CC(=O)NCc2ccccc2-c2cc(Cl)ccc2C(=O)NCc2ccc(F)cc2F)cc1 [Example 6, N-(2,4-Difluorobenzyl)-5-chloro-2′-{[2-(4-methoxyphenyl)acetyl-amino]methyl}biphenyl-2-carboxamide] | 68 | 1150 | 
CN(CCc1ccccn1)C(=O)c1ccccc1-c1ccccc1CNC(=O)OCc1ccccc1 [Example 7, Benzyl {2′-[methyl-(2-pyridin-2-ylethyl)carbamoyl]biphenyl-2-ylmethyl}carbamate] | 57 | 1060 | 
COc1ccc(CC(=O)NCc2ccccc2-c2occc2C(=O)NCCC(C)C)cc1 [Example 10, N-(3-methylbutyl)-2-(2-{[2-(4-methoxyphenyl)acetyl-amino]methyl}phenyl)furan-3-carboxamide] | 61 | 1190 | 
C[C@H](OC(=O)NCc1ccccc1-c1cccnc1C(=O)NCCc1ccccn1)c1ccccc1 [Example 12, (S)-1-Phenylethyl {2-[2-(2-pyridin-2-ylethylcarbamoyl)pyridin-3-yl]benzyl}carbamate] | 73 | 3360 | 
COc1ccc(CC(=O)NCc2ccccc2-c2ccsc2C(=O)NCc2ccc(F)cc2F)cc1 [Example 8, N-(2,4-Difluorobenzyl)-3-(2-{[2-(4-methoxyphenyl)acetyl-amino]methyl}phenyl)thiophene-2-carboxamide] | 77 | 550 | 
CCCCC/C=C\C/C=C\C/C=C\C/C=C\CCCC(=O)N[C@H](C)CO [methanandamide] |  |  | IC50 (TASK-1): 700 nM
CCN1CC(CCN2CCOCC2)C(c2ccccc2)(c2ccccc2)C1=O (stereo not shown) [doxapram] |  |  | IC50 (TASK-1): 400 nM
O=C(NCc1ccccc1-c1ncccc1C(=O)NCc1ccc(F)cc1F)OCc1ccccc1 [Example 14, Benzyl {2-[3-(2,4-Difluorobenzylcarbamoyl)pyridin-2-yl]benzyl}carbamate] | 50 | 2900 | 
C[C@H](OC(=O)NCc1ccccc1-c1ccccc1C(=O)NC[C@@H](C)O)c1ccccc1 [Example 5, N-(2-(R)-hydroxypropyl)-2′-(α-(S)-methylbenzyloxycarbonyl-aminomethyl)biphenyl-2-carboxamide] | 88 | 2080 | 
FC(F)OC(Cl)C(F)(F)F (stereo not shown) [isoflurane] |  |  | Effect on the TASK-1 channel (in words) (TASK-1): activation
CC[C@H](NC(=O)c1cc(F)ccc1NS(=O)(=O)c1cccc2cccnc12)c1ccccc1 [Example 3, (S)-5-Fluoro-2-(quinoline-8-sulfonylamino)-N-(1-phenylpropyl)benzamide sodium salt] | 82 |  | 
CCCCS(=O)(=O)Nc1ccccc1C(=O)N[C@@H](CC)c1ccc(OC)nc1 [Example 1 (S-enantiomer), 2-(butyl-1-sulfonylamino)-N-[1(S)-(6-methoxypyridin-3-yl)propyl]benzamide] | 58 | 800 | 
CC(C)CCNC(=O)c1cccc(-c2ccncc2CNC(=O)OCc2ccccc2)c1 [Example 15, Benzyl {4-[3-(3-methylbutylcarbamoyl)phenyl]pyridin-3-yl-methyl}carbamate] | 70 | 1830 | 
CC[C@H](NC(=O)c1cc(OC)ccc1NS(=O)(=O)c1ccc(OC)cc1)c1ccccc1 [Example 4, (S)-5-Methoxy-2-(4-methoxybenzenesulfonylamino)-N-(1-phenylpropyl)benzamide] |  | 650 | 
COc1ccc(CC(=O)NCc2ccccc2-c2ccc(C(=O)NCc3ccc(F)cc3F)o2)cc1 [Example 9, N-(2,4-Difluorobenzyl)-5-(2-{[2-(4-methoxyphenyl)acetyl-amino]methyl}phenyl)furan-2-carboxamide] | 60 | 2370 | 
COc1ccc(CCC(=O)NCc2ccccc2-c2cc(C(=O)NCCC(C)C)ccc2C)cc1 [Example 16, N-(3-Methylbutyl)-2′-{[3-(4-methoxyphenyl)propionylamino]methyl}-6-methylbiphenyl-3-carboxamide] |  | 2770 | 
